In US3954793A, “1-(2-Propynyl)-1 H-indazole compounds” (priority 1973, dated 1976):

Tests used:
male mice = assay: extension of sleeping time of depressant drugs by synergists; type: in vivo, male mice (Swiss albino white); details: for Mean Sleeping Time, Noludar / Relative Sleeping Time, Noludar: Noludar 110 mg/kg; for Relative Sleeping Time, Noludar / Relative Sleeping Time, Secobarbital: treated/control; for Mean Sleeping Time, Secobarbital / Relative Sleeping Time, Secobarbital: Secobarbital 37 mg/kg
In short: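 Swiss albino male mice (~38 days, 25-30 g) given synergist at 74.0 or 110.0 mg/kg in corn oil 1 h before Secobarbital 37.0 mg/kg or Noludar 110.0 mg/kg in water. Sleeping time measured from drug dosing to righting-reflex recovery; relative sleeping time = treated ÷ drug-only control.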

[1] = test system: Rutgers A strain house flies; assay: topical application, percent kill after 24 hours, resistant Rutgers A strain; type: in vivo, female)
In short: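 Synergist plus mobam, Diazinon or GS 13005 dissolved in acetone, applied as 1.0 μl to the thorax of CO2-anaesthetised 3-to-5 day old female Rutgers A (resistant) house flies; doses in μg/fly. Flies held 10 per dish, 3-5 dishes per treatment, with skim milk; mortality scored at 24 h.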

[2] = test system: Swiss albino, white male mice; assay: acute toxicity and synergism of acute toxicity in mice; type: in vivo; details: 48 hours, eight mice
In short: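 Male Swiss albino mice (23 to 27 g, five to six weeks), eight per dose, dosed intraperitoneally in corn oil: dimetilan alone at 4 to 32 mg per kg, synergists alone at 1000 mg/kg with deaths counted at 72 hours. For synergism, synergist given 1 hour before insecticide, lethality observed for at least 6 hours.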

[3] = synergist 110 mg/kg one hour prior
[4] = Dimetilan 8 + synergist 240 mg/kg i.p.
[5] = Mobam 0.30 + synergist 1.5 μg/fly
[6] = Mobam 0.60 + synergist 3.0 μg/fly
[7] = insecticide 0, synergist 7.5 μg/fly

SMILES	Mean Sleeping Time, Noludar (male mice; [3]) [min]	Relative Sleeping Time, Noludar (male mice; synergist 110 mg/kg)	Mean Sleeping Time, Secobarbital (male mice; synergist 74 mg/kg one hour prior) [min]	Relative Sleeping Time, Secobarbital (male mice; synergist 74 mg/kg)	percent kill after 24 hours, with Diazinon ([1]; Diazinon 3.0 + synergist 3.0 μg/fly) [%]	percent kill after 24 hours, with GS 13005 ([1]; GS 13005 1.0 + synergist 5.0 μg/fly) [%]	percent kill after 24 hours, synergist alone ([1]; insecticide 0, synergist 5.0 μg/fly) [%]	number of mice dead, with Dimetilan ([2]; Dimetilan 8 + synergist 80 mg/kg i.p.)	number of mice dead, with Dimetilan [2, 4]	Mean Sleeping Time, Secobarbital (male mice; [3]) [min]	Relative Sleeping Time, Secobarbital (male mice; synergist 110 mg/kg)	percent kill after 24 hours, with Mobam [1, 5] [%]	percent kill after 24 hours, with Mobam [1, 6] [%]	percent kill after 24 hours, synergist alone [1, 7] [%]	percent kill after 24 hours, with Mobam ([1]; Mobam 0.15 + synergist 0.75 μg/fly) [%]
C#CCOC(c1ccc(Cl)cc1)C(C)[N+](=O)[O-] (centres unmarked) [IV-C]	74	2.5	112	4.7	19	95	0	5	7						
C#CCOCc1ccc(Cl)c(Cl)c1 [II-C]	50	1.3							0	33	1.0	20	67	0	
C#CCOCc1c(Cl)ccc(Cl)c1Cl [II-E]	45	1.1							0	44	1.4	70	99	0	17
